Converted amounts (≈) assume the structure as drawn.
Columns and labels:
[1] = Eukaryotic cell toxicity, MTS assay (CC50); assay type: cell-based; conditions: African green monkey, Vero cells, mean of 2 or 3 determinations, read-out: Vero (CC50) in vitro cytotoxicity
Protocol: (§1) Five eukaryotic cell lines were used to determine the cytotoxicity of the compounds: human embryonic lung (HEL) fibroblast cells, human cervixcarinoma-derived HeLa cells, human T-cell leukemia-derived MT4 cells, MDCK cells, and African Green monkey kidney-derived VERO cells. Semi-confluent cell cultures in 96-well plates were exposed to serial dilutions of the compounds or to medium (= no compound control), then incubated at 37°C. Four days later, the cells were inspected by microscopy to determine the MCC, that is, compound concentration that causes a microscopically detectable alteration of normal cell morphology. Next, the MTS cell viability reagent (CellTiter 96 AQueous MTS Reagent from Promega) was added. After 4 hours of incubation at 37°C, OD at 490 nm was recorded in a microplate reader.

[2] = system: S. epidermidis ATCC 12228; test: Planktonic susceptibility (MIC/MBC), 96-well broth microdilution; assay type: cell-based, Staphylococcus epidermidis; conditions: for MBC / MIC: Staphylococcus epidermidis; for MBC: ATCC12228; for MIC: ATCC12228, planktonic, overnight 37°C in MHB
Protocol: (§2) All bacterial strains subjected to testing had been stored at −70°C prior to the experiment. The experiment commenced by streaking small amounts of the frozen bacterial samples onto Muller-Hinton agar (MHA) culture medium (BD Bacto, Oxoid, Basingstoke, UK Cat# X296B) and allowing for overnight incubation. Bacteria were re-cultured on MHA plates as required to confirm colony morphology and lack of contamination. Strains tested were P. aeruginosa ATCC 27853, E. coli ATCC 25922, Staphylococcus aureus ATCC 25923, MRSA ATCC 33591, S. epidermidis ATCC 12228, Klebsiella pneumoniae ATCC, P. mirabilis ATCC 35659, and 10 clinical isolates of MRSA from Foothills Hospital, Calgary, Canada. To prepare for susceptibility testing, a protocol modified from Lemire et al was used ([28]). MHB was swab-inoculated from MHA colonies and shake-incubated until turbid. Dilution of the broth with 0.9% saline was performed as necessary to match a 1.0 McFarland standard.
(§3) MIC and MBC assessments were conducted on all bacterial strains using 96-well microtiter plates. To prepare the wells for bacteria, serial dilutions of the antibacterial agents were carried out along the rows of two microtiter plates. The antibacterials were 2-fold diluted with Mueller-Hinton broth (MHB) in each column, reaching a volume of 75 µL. The 1.0 McFarland standard was diluted 15-fold in MHB, and 75 µL of inoculum was added to the wells treated with antibacterials, resulting in a total volume of 150 µL. The microtiter plates were covered and then shake-incubated overnight at 150 rpm and 37°C. MIC was determined based on visible bacterial growth. In cases of antibacterial opacity or ambiguous results, streaking of well cultures on MHA, overnight incubation, and subsequent comparison with controls were performed. MBC was determined by transferring 3 µL of culture from all MIC microtiter plate wells to 147 µL of Mueller-Hinton broth in fresh plates. These plates were shake-incubated overnight at 150 rpm and 37°C, and bacterial growth was visually inspected.

[3] = system: MRSA ATCC 33591; test: as above; assay type: cell-based, methicillin-resistant S. aureus; conditions: for antibacterial efficacy (in words): MRSA spp.; for MBC / MIC: Staphylococcus aureus, MRSA reference strain; for MIC: planktonic, overnight 37°C in MHB
Protocol: as §2
as §3, with “In cases of antibacterial opacity or ambiguous results, streaking of well cultures on MHA, overnight incubation, and subsequent comparison with controls were performed.” left out

[4] = system: Klebsiella pneumoniae ATCC; test: as above; assay type: cell-based; conditions: K. pneumonia; for MIC: planktonic, overnight 37°C in MHB
Protocol: as §2, §3

[5] = system: P. mirabilis ATCC 35659; test: as above; assay type: cell-based; conditions: Proteus mirabilis; for MBC: ATCC35659; for MIC: ATCC35659, planktonic, overnight 37°C in MHB
Protocol: as §2, §3

[6] = system: Staphylococcus aureus ATCC 25923; test: as above; assay type: cell-based; conditions: S. aureus; for MBC / MIC: Staphylococcus aureus, ATCC25923; for MIC: planktonic, overnight 37°C in MHB
Protocol: as §2, §3

[7] = system: 10 clinical isolates of MRSA from Foothills Hospital, Calgary; test: Planktonic susceptibility (MIC/MBC) of MRSA clinical isolates; assay type: cell-based, methicillin-resistant S. aureus; conditions: Staphylococcus aureus
Protocol: as §2
as §3, with “In cases of antibacterial opacity or ambiguous results, streaking of well cultures on MHA, overnight incubation, and subsequent comparison with controls were performed.” left out

[8] = system: MT4 cells; test: Eukaryotic cell toxicity; assay type: cell-based, Human; conditions: 4 days
Protocol: as §1

SMILES | CC50 at 4 days [1] [µM] | antibacterial efficacy (in words) [2] | MBC [2] [µM] | MIC [2] [µM] | antibacterial efficacy (in words) [3] | MBC [3] [µM] | MIC [3] [µM] | MBC [4] [µM] | MIC [4] [µM] | MBC [5] [µM] | MIC [5] [µM] | antibacterial efficacy (in words) [6] | MBC [6] [µM] | MIC [6] [µM] | MBC ([7]; MRSA #1 clinical isolate) [µM] | MIC ([7]; MRSA #1 clinical isolate) [µM] | MBC ([7]; MRSA #2 clinical isolate) [µM] | MIC ([7]; MRSA #2 clinical isolate) [µM] | MBC ([7]; MRSA #3 clinical isolate) [µM] | MIC ([7]; MRSA #3 clinical isolate) [µM] | also measured
O=C(Nc1ccc(S(F)(F)(F)(F)F)cc1)Nc1ccc(Cl)c(Cl)c1 [EBP-59] | > 4 | effective | 10 (≈ 4.07 µg/mL) | 4 (≈ 1.63 µg/mL) | effective | 20 (≈ 8.14 µg/mL) | 2.4 (≈ 0.977 µg/mL) | > 5000 | > 5000 | 2 (≈ 0.814 µg/mL) | 2 (≈ 0.814 µg/mL) | effective | 6.1 (≈ 2.48 µg/mL) | < 0.3 | 5 (≈ 2.04 µg/mL) | < 2 | < 2 | < 2 | < 2 | < 2 | MBC ([7]; MRSA #4 clinical isolate): 5 µM (≈ 2.04 µg/mL); MIC ([7]; MRSA #4 clinical isolate): < 2 µM; MBC ([7]; MRSA #5 clinical isolate): 10 µM (≈ 4.07 µg/mL); MIC ([7]; MRSA #5 clinical isolate): < 2 µM; MBC ([7]; MRSA #6 clinical isolate): < 2 µM; MIC ([7]; MRSA #6 clinical isolate): < 2 µM; MBC ([7]; MRSA #7 clinical isolate): < 2 µM; MIC ([7]; MRSA #7 clinical isolate): < 2 µM; MBC ([7]; MRSA #8 clinical isolate): 5 µM (≈ 2.04 µg/mL); MIC ([7]; MRSA #8 clinical isolate): < 2 µM; MBC ([7]; MRSA #9 clinical isolate): 20 µM (≈ 8.14 µg/mL); MIC ([7]; MRSA #9 clinical isolate): < 2 µM; MBC ([7]; MRSA #10 clinical isolate): 40 µM (≈ 16.3 µg/mL); MIC ([7]; MRSA #10 clinical isolate): < 2 µM; MT4 (MCC) in vitro cytotoxicity [8]: 3.9 µM
O=C(Nc1ccc(Cl)cc1)Nc1cccc(S(F)(F)(F)(F)F)c1 [EBP-62, 1-(4-chlorophenyl)-3-(3-(pentafluoro-λ^6-sulfanyl)phenyl)urea] | > 4 | effective | 100 (≈ 37.3 µg/mL) | 20 (≈ 7.45 µg/mL) | effective | 76 (≈ 28.3 µg/mL) | 38 (≈ 14.2 µg/mL) | > 5000 | > 5000 | > 5000 | > 5000 | effective | 300 (≈ 112 µg/mL) | 0.3 (≈ 0.112 µg/mL) | 80 (≈ 29.8 µg/mL) | < 2 | 5 (≈ 1.86 µg/mL) | < 2 | < 2 | < 2 | MBC ([7]; MRSA #4 clinical isolate): 20 µM (≈ 7.45 µg/mL); MIC ([7]; MRSA #4 clinical isolate): < 2 µM; MBC ([7]; MRSA #5 clinical isolate): 20 µM (≈ 7.45 µg/mL); MIC ([7]; MRSA #5 clinical isolate): < 2 µM; MBC ([7]; MRSA #6 clinical isolate): 5 µM (≈ 1.86 µg/mL); MIC ([7]; MRSA #6 clinical isolate): < 2 µM; MBC ([7]; MRSA #7 clinical isolate): 10 µM (≈ 3.73 µg/mL); MIC ([7]; MRSA #7 clinical isolate): 5 µM (≈ 1.86 µg/mL); MBC ([7]; MRSA #8 clinical isolate): 80 µM (≈ 29.8 µg/mL); MIC ([7]; MRSA #8 clinical isolate): 5 µM (≈ 1.86 µg/mL); MBC ([7]; MRSA #9 clinical isolate): 40 µM (≈ 14.9 µg/mL); MIC ([7]; MRSA #9 clinical isolate): < 2 µM; MBC ([7]; MRSA #10 clinical isolate): 80 µM (≈ 29.8 µg/mL); MIC ([7]; MRSA #10 clinical isolate): 5 µM (≈ 1.86 µg/mL); MT4 (MCC) in vitro cytotoxicity [8]: 4.7 µM
O=C(Nc1ccc(Cl)cc1)Nc1ccc(S(F)(F)(F)(F)F)cc1 [EPB-61, 1-(4-Chlorophenyl)-3-(4-(pentafluoro-λ^6-sulfanyl)phenyl)urea] | > 4 | effective | 40 (≈ 14.9 µg/mL) | 1 (≈ 0.373 µg/mL) | effective | 300 (≈ 112 µg/mL) | 160 (≈ 59.6 µg/mL) | > 5000 | > 5000 | > 5000 | > 5000 | effective | 95 (≈ 35.4 µg/mL) | 9.5 (≈ 3.54 µg/mL) | 40 (≈ 14.9 µg/mL) | < 2 | 10 (≈ 3.73 µg/mL) | < 2 | 10 (≈ 3.73 µg/mL) | < 2 | MBC ([7]; MRSA #4 clinical isolate): 20 µM (≈ 7.45 µg/mL); MIC ([7]; MRSA #4 clinical isolate): < 2 µM; MBC ([7]; MRSA #5 clinical isolate): 40 µM (≈ 14.9 µg/mL); MIC ([7]; MRSA #5 clinical isolate): < 2 µM; MBC ([7]; MRSA #6 clinical isolate): 20 µM (≈ 7.45 µg/mL); MIC ([7]; MRSA #6 clinical isolate): < 2 µM; MBC ([7]; MRSA #7 clinical isolate): 20 µM (≈ 7.45 µg/mL); MIC ([7]; MRSA #7 clinical isolate): < 2 µM; MBC ([7]; MRSA #8 clinical isolate): 40 µM (≈ 14.9 µg/mL); MIC ([7]; MRSA #8 clinical isolate): < 2 µM; MBC ([7]; MRSA #9 clinical isolate): 40 µM (≈ 14.9 µg/mL); MIC ([7]; MRSA #9 clinical isolate): < 2 µM; MBC ([7]; MRSA #10 clinical isolate): 20 µM (≈ 7.45 µg/mL); MIC ([7]; MRSA #10 clinical isolate): < 2 µM; MT4 (MCC) in vitro cytotoxicity [8]: 2.8 µM

Source: article PMC11237694, “Novel pentafluorosulfanyl-containing triclocarban analogs selectively kill Gram-positive bacteria” (Microbiology Spectrum, 2024)
